Results: PubChem BioAssay (NCI)
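Protocol summary: plate cells (96-well), add compound at 5 concentrations, incubate 48 h, interpolate endpoints linearly. TGI denotes the concentration required for complete inhibition of growth.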

Tests used:
Assay in all cases: inhibition of tumour cell growth, NCI panel, 48 h
[1] = test system: HT29 colon
[2] = test system: CCRF-CEM leukemia
[3] = test system: OVCAR-3 ovarian
[4] = test system: SK-MEL-2 melanoma
[5] = test system: SNB-19 CNS
[6] = test system: SF-268 CNS
[7] = test system: KM20L2 colon
[8] = test system: 786-0 renal
[9] = test system: SNB-78 CNS
[10] = test system: SF-295 CNS
[11] = test system: OVCAR-8 ovarian
[12] = test system: MOLT-4 leukemia
[13] = test system: KM12 colon
[14] = test system: SN12C renal
[15] = test system: U251 CNS
[16] = test system: UACC-62 melanoma
[17] = test system: XF 498 CNS
[18] = test system: IGROV1 ovarian
[19] = test system: TK-10 renal
[20] = test system: A498 renal
[21] = test system: OVCAR-5 ovarian
[22] = test system: SW-620 colon
[23] = test system: NCI-H23 lung
[24] = test system: ACHN renal
[25] = test system: COLO 205 colon
[26] = test system: CAKI-1 renal
[27] = test system: NCI-H226 lung
[28] = test system: SNB-75 CNS
[29] = test system: HCT-116 colon
[30] = test system: MALME-3M melanoma
[31] = test system: EKVX NSCLC
[32] = test system: RPMI-8226 leukemia
[33] = test system: UACC-257 melanoma
[34] = test system: LOX IMVI melanoma
[35] = test system: DLD-1 colon
[36] = test system: K-562 leukemia
[37] = test system: M19-MEL melanoma
[38] = test system: SK-MEL-5 melanoma
[39] = test system: NCI-H460 lung
[40] = test system: RXF-631 renal
[41] = test system: NCI-H522 lung
[42] = test system: HCC-2998 colon
[43] = test system: LXFL 529 NSCLC
[44] = test system: RXF 393 renal
[45] = test system: DMS 114 small cell lung
[46] = test system: SK-MEL-28 melanoma
[47] = test system: SF-539 CNS
[48] = test system: OVCAR-4 ovarian
[49] = test system: M14 melanoma
[50] = test system: HOP-62 NSCLC
[51] = test system: A549 NSCLC
[52] = test system: SK-OV-3 ovarian
[53] = test system: DMS 273 small cell lung
[54] = test system: UO-31 renal
[55] = test system: HCT-15 colon
[56] = test system: HL-60(TB) leukemia
[57] = test system: HOP-18 NSCLC
[58] = test system: HOP-92 NSCLC

Measured: TGI

CN1C/C(=C\C=C\c2ccccc2)C(=O)/C(=C/C=C/c2ccccc2)C1
> 100 µM: [1] | [2] | [3] | [4] | [5] | [6] | [7] | [8] | [9] | [10] | [11] | [12] | [13] | [14] | [15] | [16] | [17] | [18] | [19] | [20] | [21] | [22] | [23] | [24] | [25] | [26] | [27] | [28] | [29] | [30] | [31] | [32] | [33] | [34] | [35] | [36] | [37] | [38] | [39] | [40] | [41] | [42] | [43] | [44] | [45] | [46] | [47] | [48] | [49] | [50] | [51] | [52] | [53] | [54] | [55]

O=[N+]([O-])c1ccc(C=NC23CC4CC(CC(C4)C2)C3)cc1
> 100 µM: [1] | [2] | [3] | [4] | [5] | [56] | [6] | [7] | [8] | [9] | [10] | [11] | [12] | [13] | [14] | [15] | [16] | [17] | [18] | [19] | [20] | [21] | [23] | [24] | [57] | [25] | [26] | [27] | [28] | [29] | [30] | [31] | [32] | [33] | [34] | [35] | [36] | [37] | [39] | [40] | [41] | [42] | [43] | [44] | [58] | [45] | [46] | [47] | [48] | [49] | [50] | [52] | [53] | [54] | [55]
